“Also recorded” adds a separate entry of the source.
Tests used:
[1] = biological target: T1, proteasomal trypsin-like activity in Jurkat T cell extract (Homo sapiens, UniProt Q99436); test: Proteasome trypsin-like activity in Jurkat T cell free extract; assay type: biochemical; settings: EGCG 10 μM
T1 construct: endogenous in cells; host or cells: Jurkat T cells (whole cell extract or intact cells)
Description: (§1) Inhibition of the proteasome activity with cell free extracts by tea polyphenols—The whole cell extract (3.5 μg) from Jurkat T cells is incubated for 90 min at 37° C. with 20 μM of a fluorogenic peptide substrate, Suc-Leu-Leu-Val-Tyr-AMC (for the chymotrypsin-like activity), Z-Leu-Leu-Glu-AMC [peptidyl-glutamyl peptide-hydrolyzing (PGPH) activity; Calbiochem], and Z-Gly-Gly-Arg-AMC (for the trypsin-like activity; Bachem), in 100 μl of the assay buffer with or without 10 μM EGCG or EGC. The hydrolyzed AMCs are quantified as described above.

[2] = biological target: T2, chymotrypsin-like activity in living breast (MCF7) cancer cells (Homo sapiens, UniProt P28074); test: Proteasome chymotrypsin-like activity in living MCF7 cells; assay type: cell-based
T2 construct: endogenous in cells; host or cells: MCF7 cells (intact)
Description: FIG. 16(A) The fluorogenic calpain I peptide substrate Suc-Leu-Tyr-AMC (S; 40 μM) is incubated with either a purified calpain I (P; 3 μg) or buffer (Buff) at 30° C. for 30 min with or without 10 μM calpeptin, EGCG or EGC, followed by measuring AMCs (the product), as described in the text. (B) T1 or T2 cells are treated with LLL at either 10 (A-C) or 50 μM (D, E), followed by Western blotting with indicated antibodies.(C) MCF-7 cells, pre-incubated with EGCG at an indicated concentration for 12 h, are incubation for additional 12 h with 20 μM Suc-Leu-Leu-Val-Tyr-AMC (the peptide substrate for the proteasomal chymotryptic activity), followed by measurement of AMCs in medium (as described in the grant and the manuscript). (D) Cell cycle-dependent p27 degradation. PCI-13 head and neck tumor cells are treated with aphidicolin (5 μg/ml) for 24 h (0 h), followed by release for up to 24 h. […]
(b) The peptide substrate for the proteasomal chymotrypsin-like activity, Suc-Leu-Leu-Val-Tyr-AMC, is used to measure the proteasome activity in intact Jurkat, MCF-7 and PC-3 cells, which is inhibitable by co-incubation with EGCG (FIG. 16C). […] After that, medium is collected and the liberated AMCs in the medium are measured by fluorometer to measure in vivo potency and selectivity of tea polyphenols.

[3] = system: p27 in MCF-7 tumors; test: Nude mice bearing human breast MCF-7 tumors, biochemical end points; assay type: in vivo; settings: mice pre-fed or injected into the tumors
From the text: Treatment of drinking water with green tea, a green tea polyphenol extract or EGCG, or direct injection into tumors of a solution containing a green tea polyphenol extract or EGCG, inhibits breast or other tumor growth in nude mice. In (a) it is shown that antitumor activity of tea polyphenols correlates to their potency to inhibit the proteasome activity. All mice receive a 90-day slow-release subcutaneous (s.c.) estrogen pellet (Innovative Research) in the anterior flank 7 days before tumor inoculation. In Experiment 1, mice (5 per group) are pre-fed with a solution of EGCG, EGC, ECG, EC, a green tea extract (1, 10, and 50 mg/kg) or water three times per week for 2 weeks, followed by s.c. implanting human breast MCF-7 tumor cells in nude mice above the right and left flanks (10^7 cells per flank). When tumors in the control group reach ˜1000 mm^3 the experiment is terminated. […] Evaluation of the antitumor activity of tea polyphenols is determined by measuring the change in tumor size of the treated group compared to the control group. […] Levels of p27 and Bax protein in tumor tissues are measured by Western blotting and immunohistochemistry. […] Bax localization (by immunohistochemistry), processing of caspase-3, cleavage of PARP (by Western blotting) and apoptosis (by TUNEL) are then measured. […]

[4] = biological target: T3, proteasomal PGPH activity in Jurkat T cell extract (Homo sapiens, UniProt P28072); test: Proteasome PGPH activity in Jurkat T cell free extract; assay type: biochemical; settings: EGCG 10 μM
T3 construct: endogenous in cells; host or cells: Jurkat T cell whole cell extract
Description: as §1

## O=C(O[C@@H]1Cc2c(O)cc(O)cc2O[C@@H]1c1cc(O)c(O)c(O)c1)c1cc(O)c(O)c(O)c1 [EGCG, (−)-epigallocatechin-3-gallate]
[1]
  effect on proteasomal trypsin-like activity (in words): does not affect
[2]
  inhibition of chymotrypsin-like activity in living MCF7 cells (in words): inhibitable; also recorded: inhibits
[3]
  p27 levels in tumors: Increased p27 levels
[4]
  inhibition of proteasomal PGPH activity (in words): potently inhibits

Source: patent US6713506B2, “Tea polyphenol esters and analogs thereof for cancer prevention and treatment” (University of South Florida, priority 2000, dated 2004)
